For orientation: vapor or sublimation pressure means the pressure of vapour in equilibrium with the condensed phase.

Values joined by “and” are separate entries in the source; they are usually repeats but may differ in a detail not shown here. Equal values may be shown once. Numbers after ± are expanded uncertainties.

For this data set the following is noted: 313.15 K; Liquid; Closed cell (Static) method.
As to `CCOC(C)(C)C` [2-ethoxy-2-methylpropane], the “vapor or sublimation pressure” value was 31.62 ± 0.12 kPa and 31.63 ± 0.12 kPa and 31.64 ± 0.12 kPa.

Consider `CCCCCCC` [heptane], for which the “vapor or sublimation pressure” value was 12.32 ± 0.056 kPa and 12.33 ± 0.056 kPa and 12.31 ± 0.056 kPa.

`Cc1ccccc1` [toluene]: the “vapor or sublimation pressure” value is 7.88 ± 0.041 kPa [middle of 4 runs].

The values above are taken from the NIST ThermoML archive (doi:10.1021/je0602115).
